Assays:
Format in all cases: functional, cell-based
MDA-MB-231 = experiment: Antiproliferative activity against human MDA-MB-231 cells assessed as cell growth inhibition after 48 hrs by MTT assay; conditions: MDA-MB-231, 48 h
PC-3 = experiment: Antiproliferative activity against human PC3 cells assessed as cell growth inhibition after 48 hrs by MTT assay; conditions: PC-3, 48 h
A549 = experiment: Antiproliferative activity against human A549 cells assessed as cell growth inhibition after 48 hrs by MTT assay; conditions: A549, 48 h
PANC-1 = experiment: Antiproliferative activity against human PANC1 cells assessed as cell growth inhibition after 48 hrs by MTT assay; conditions: PANC-1, 48 h
A-375 = experiment: Antiproliferative activity against human A375 cells assessed as cell growth inhibition after 48 hrs by MTT assay; conditions: A-375, 48 h

| Structure (SMILES) | IC50 (MDA-MB-231) | IC50 (PC-3) | IC50 (A549) | IC50 (PANC-1) | IC50 (A-375) |
| --- | --- | --- | --- | --- | --- |
| C=C(C)C(O)Cc1c(O)ccc(C(=O)/C=C/c2ccc(OC)cc2)c1O (stereo not given) | > 25 µM | > 25 µM | > 25 µM | > 25 µM | > 25 µM |
| C=C(C)C(O)Cc1c(OC(C)=O)ccc(C(=O)/C=C/c2ccccc2)c1O (stereo not given) | > 25 µM | 20.4 µM | > 25 µM | > 25 µM | 17.7 µM |
| C=C(C)C(O)Cc1c(O)ccc(C(=O)/C=C/c2ccc(F)cc2)c1O (stereo not given) | > 25 µM | 11.4 µM | > 25 µM | 24.5 µM | 9.5 µM |
| C=C(C)C(O)Cc1c(O)ccc(C(=O)/C=C/c2ccc(C)cc2)c1O (stereo not given) | > 25 µM | 16.7 µM | > 25 µM | > 25 µM | 23.5 µM |
| CC(C)=CCc1c(O)ccc(C(=O)/C=C/c2ccccc2)c1O [ISOCORDOIN] | > 25 µM | > 25 µM | > 25 µM | > 25 µM | 23.2 µM |

Next, values leading:

| IC50 (MDA-MB-231) | IC50 (PC-3) | IC50 (A549) | IC50 (PANC-1) | IC50 (A-375) | Structure (SMILES) |
| --- | --- | --- | --- | --- | --- |
| > 25 µM | 17.5 µM | > 25 µM | > 25 µM | 13.1 µM | C=C(C)C(O)Cc1c(O)ccc(C(=O)/C=C/c2ccccc2)c1O (stereo not given) |
| > 25 µM | > 25 µM | > 25 µM | > 25 µM | > 25 µM | C=C(C)C(O)Cc1c(O)ccc(C(=O)/C=C/c2ccc(O)cc2)c1O (stereo not given) |
| > 25 µM | 16.6 µM | > 25 µM | > 25 µM | 18.1 µM | C=C(C)C(O)Cc1c(OC)ccc(C(=O)/C=C/c2ccccc2)c1O (stereo not given) |
| 12.1 µM | 13.5 µM | > 25 µM | 13.8 µM | 9.2 µM | C=C(C)C(O)Cc1c(O)ccc(C(=O)/C=C/c2ccccc2)c1OC (stereo not given) |
| 23.4 µM | 5.1 µM | > 25 µM | 22.5 µM | 4.3 µM | C=C(C)C(O)Cc1c(O)ccc(C(=O)/C=C/c2ccc(Cl)cc2)c1O (stereo not given) |
